Values of other authors in US10543230B2, “Redox signaling gel formulation” (RDG Holdings, Inc., priority 2013, dated 2020).

Settings: pH around 7.0, room temperature

SMILES | half-life
[O]O [superoxide free radicals (O2*-), superoxide] | 10's of milliseconds
O=[O+][O-] [dissolved ozone (O3), ozone] | about 20 min
